Patent publication US20100311801A1, “USE OF TETRAMIC ACID DERIVATIVES FOR CONTROLLING NEMATODES” (priority 2007, published 2010)
Several values for one entry are separate records, joined by “and”; a condition that tells them apart may be missing. Equal entries are not always repeated.

Columns and labels:
Type in all cases: in vivo
Meloidogyne arenaria = test: Tomato pot trial, root-knot nematode galling index and eggs per root system; settings: for Galling index: 78 d after first treatment, mean; for Appearance of root system (galls, egg masses, rot): visual, at harvest
Description: The experiment is carried out in a shade house at a temperature of around 78 F (76-80 F). The experiment is conduced in a complete randomize design with seven treatments and six replications. 6 inch pots are filled with 1,500 g of steam pasteurized (194 F for 2:30 h) field soil per pot and a 4 weeks old tomato cv. Rutgers transplant is added. The soil is an Arredondo fine sand with ca. 92% sand and 1% om. The soil is taken from a site with no history of root-knot nematode infestation.
The first preventive treatments of Vydate CLV and (I-2) (SC 240; adjuvant: Dyne-Amic (a blend of nonionic and organosilicone surfactants and MSO), 99% active w/v, added 0.25% v/v) are applied as foliar spray. Fosthiazate 900 is applied as a soil drench in 40 gallons water per acre. The second preventive application of Vydate and (I-2) are sprayed over foliage 7 days after l^st treatment. The soil is inoculated by adding 5,000 eggs/pot of Meloidogyne arenaria one day after the 2nd treatment. The curative treatments of Vydate and (I-2) are applied as a foliar spray on 21 and 28 days after inoculation with Meloidogyne arenaria.
All (I-2) and Vydate treatments are applied in 40 gallons of water/acre by a CO2 pressurized sprayer with a single 8003 VS TeeJet noozle. The tomato plants for each treatment are lined up in a row with the spray directed over their foliage until noticeable drip.
78 days after the 1st treatment the plants are harvested. Each root system is evaluated for the percentage of root-knot nematode galling and eggs per root system. A 1 to 6 scale is used for estimating the number galls per root system as follows: 1=no galls on the root system; 2=10%; 3=11 to 30%; 4=31 to 70%; 5=71 to 90%; 6=100% root system galled. Following the determination of percentage of galling the roots are processed in a bleach solution to dissolve away the gelatinous matrix surrounding the eggs. Individual eggs are collection on a 500 mesh sieve and poured into a counting dish for determining their numbers.

[1] = system: Tylenchulus semipenetrans; test: Foliar application of (I-2) to citrus in pots for control of Tylenchulus semipenetrans; settings: individual trees
Description: Foliar Application of (I-2) to Citrus in Pots for Control of Tylenchulus semipenetrans
Treatments: 15 trees sprayed with (I-2=Movento), 15 trees sprayed with water (presample each pot); 25 mL/tree
Add Tylenchulus semipenetrans larvae to all pots. The following day take trees out of greenhouse. Cover top of pot to exclude spray from soil. (I-2) (SC 240) is sprayed in a concentration of 2.6 ml plus 2.5 ml adjuvant MSO (methylated seed oil), (100% active w/v, added to the spray solution at 0.25% v/v) per liter sprac solution. Spray canopy from two sides of trees to runoff with a 2 gallon “Sure Spray” pump sprayer (Chapin Mfg.) using a nozzle that delivers a cone shape spray pattern. Allow material to dry before returning plants to greenhouse. Repeat in 14 days.
For this citrus nematode trial, 5-year old Volkamer lemon seedlings are infested with T. semipenetrans obtained from the field and maintained in the greenhouse (25-32° C.) for use in pesticide trials. Trees used in the experiment are not treated with nematicidal compounds. The seedlings are growing in a 50:50 mixture of Astatula sand (97% sand) and Pro-mix potting mixture in rectangular pots (10×10×30 cm). Trees are irrigated normally, but receive no fertilizer or pesticide treatments other than (I-2) during the experiment. Effects on citrus nematode are evaluated by soil sampling 30 days and 60 days after treatment.
Tylenchulus semipenetrans raw data (juvenile and male nematodes per […] soil. Pi is initial population before treatment, Pf is final population at one and two months post treatment).

Pratylenchus sp. = test: Vine field trial, number of nematodes in soil after foliar (I-2) or drench (imidacloprid) application; settings: vines, (I-2) 12.5 fl oz per 605 plants foliar, imidacloprid 14 fl oz drench; for Activity against Pratylenchus sp., number of nematodes, 30 d: 30 days after first treatment; for Activity against Pratylenchus sp., number of nematodes, 60 d: 60 days after first treatment; for Activity against Pratylenchus sp., number of nematodes, 0 d: prior to treatment
Description: (§1) In 5 replications, in each case 15 vines of the cultivar “Thompson Seedless 1948” are treated against soil-dwelling nematodes using a fogger. Here, a tank mix of the active compound (I-2) (SC 240) is applied after foliar application at the stated application rates with 0.25% of the adjuvant Activator 90, in comparison to imidacloprid (SC 550) after drench application by micro-irrigation injection. The water application rate is 75 gallons per acre=605 plants. Two applications of active compound (I-2) are carried out at an interval of 32 days.
(§2) Evaluation is carried out prior to the treatment and 30 days and 60 days after the first treatment by counting the number of nematodes in 500 g of soil.

Mesocriconema xenoplax = test: as above; settings: vines, (I-2) 12.5 fl oz per 605 plants foliar, imidacloprid 14 fl oz drench; for Activity against Mesocriconema xenoplax, number of nematodes, 30 d: 30 days after first treatment; for Activity against Mesocriconema xenoplax, number of nematodes, 60 d: 60 days after first treatment; for Activity against Mesocriconema xenoplax, number of nematodes, 0 d: prior to treatment
Description: as §1, §2

Meloidogyne incognita = test: as above; settings: for Activity against Meloidogyne incognita, number of nematodes, 0 d: vines Thompson Seedless, prior to treatment, (I-2) SC 240 12.5 fl oz per 605 plants foliar, imidacloprid SC 550 14 fl oz drench; for Activity against Meloidogyne incognita, number of nematodes, 30 d / Activity against Meloidogyne incognita, number of nematodes, 60 d: vines, (I-2) 12.5 fl oz per 605 plants foliar (2 applications, 32 d interval), imidacloprid 14 fl oz drench; for Activity against Meloidogyne incognita, number of nematodes, 30 d: 30 days after first treatment; for Activity against Meloidogyne incognita, number of nematodes, 60 d: 60 days after first treatment
Description: as §1, §2

[2] = preventive treatment, tomato cv. Rutgers, scale 1 to 6 (1 = no galls, 6 = 100% of root system galled)
[3] = preventive treatment, tomato, 5,000 eggs/pot inoculated

SMILES	Galling index (Meloidogyne arenaria; [2])	Number of eggs/root system 78 d after first treatment (Meloidogyne arenaria; [3])	Appearance of root system (galls, egg masses, rot) (Meloidogyne arenaria; preventive treatment)	Number of eggs/root system 78 d after first treatment (Meloidogyne arenaria; curative treatment (21 and 28 days after inoculation), tomato)	Galling index (Meloidogyne arenaria; curative treatment (21 and 28 days after inoculation), tomato, scale 1 to 6)	Appearance of root system (galls, egg masses, rot) (Meloidogyne arenaria; curative treatment)	Treat Pi (initial population before treatment) ([1]; Volkamer lemon seedlings in pots, before treatment)	Treat Pf (final population one month post treatment) ([1]; (I-2) SC 240 2.6 ml/l plus MSO foliar, repeated after 14 days, one month post treatment)	Treat Pf2 (final population two months post treatment) ([1]; (I-2) SC 240 2.6 ml/l plus MSO foliar, repeated after 14 days, two months post treatment)	Activity against Pratylenchus sp., number of nematodes, 30 d (Pratylenchus sp.)	Activity against Pratylenchus sp., number of nematodes, 60 d (Pratylenchus sp.)	Activity against Pratylenchus sp., number of nematodes, 0 d (Pratylenchus sp.)	Activity against Mesocriconema xenoplax, number of nematodes, 30 d (Mesocriconema xenoplax)	Activity against Mesocriconema xenoplax, number of nematodes, 60 d (Mesocriconema xenoplax)	Activity against Mesocriconema xenoplax, number of nematodes, 0 d (Mesocriconema xenoplax)	Activity against Meloidogyne incognita, number of nematodes, 0 d (Meloidogyne incognita)	Activity against Meloidogyne incognita, number of nematodes, 30 d (Meloidogyne incognita)	Activity against Meloidogyne incognita, number of nematodes, 60 d (Meloidogyne incognita)
CCOP(=O)(SC(C)CC)N1CCSC1=O (stereo not drawn) [Fosthiazate, reference compound]	5.3	453,500 eggs/root system	darkened decaying roots with numerous galls and egg masses	–	–	–	–	–	–	–	–	–	–	–	–	–	–	–
CCOC(=O)OC1=C(c2cc(C)ccc2C)C(=O)N[C@]12CC[C@@H](OC)CC2 [(I-2)]	6.0	421,600 eggs/root system	numerous egg masses and coalesced galls	141,000 eggs/root system	4.5	little darkening or rotting appearance	2412.5 juvenile and male nematodes per 100 cm^2 soil and 2100.0 juvenile and male nematodes per 100 cm^2 soil and 1700.0 juvenile and male nematodes per 100 cm^2 soil and 9237.5 juvenile and male nematodes per 100 cm^2 soil and 4180.0 juvenile and male nematodes per 100 cm^2 soil and 400.0 juvenile and male nematodes per 100 cm^2 soil and 4250.0 juvenile and male nematodes per 100 cm^2 soil (2×) and 1625.0 juvenile and male nematodes per 100 cm^2 soil and 125.0 juvenile and male nematodes per 100 cm^2 soil (2×) and 2190.0 juvenile and male nematodes per 100 cm^2 soil and 210.0 juvenile and male nematodes per 100 cm^2 soil and 2490.0 juvenile and male nematodes per 100 cm^2 soil and 250.0 juvenile and male nematodes per 100 cm^2 soil	168.83 juvenile and male nematodes per 100 cm^2 soil and 519.74 juvenile and 534.25 juvenile and 1440.00 juvenile and 2753.33 juvenile and 336.84 juvenile and 708.33 juvenile and 638.16 juvenile and 87.21 juvenile and 1803.37 juvenile and 1402.78 juvenile and 60.81 juvenile and 1448.86 juvenile and 86.21 juvenile and 54.35 juvenile	181.82 juvenile and male nematodes per 100 cm^2 soil and 380.95 juvenile and 338.71 juvenile and 1207.55 juvenile and 7807.69 juvenile and 347.46 juvenile and 1908.33 juvenile and 4122.22 juvenile and 175.44 juvenile and 1409.84 juvenile and 3205.36 juvenile and 92.59 juvenile and 1481.13 juvenile and 551.02 juvenile and 531.25 juvenile	371.2 nematodes in 500 g of soil	454 nematodes in 500 g of soil	826 nematodes in 500 g of soil	861.2 nematodes in 500 g of soil	942.8 nematodes in 500 g of soil	1817 nematodes in 500 g of soil	312 nematodes in 500 g of soil	140.8 nematodes in 500 g of soil	178.8 nematodes in 500 g of soil
O=[N+]([O-])NC1=NCCN1Cc1ccc(Cl)nc1 [Imidacloprid, reference compound]	–	–	–	–	–	–	–	–	–	320 nematodes in 500 g of soil	319.6 nematodes in 500 g of soil	406 nematodes in 500 g of soil	808.4 nematodes in 500 g of soil	958.46 nematodes in 500 g of soil	1863 nematodes in 500 g of soil	267 nematodes in 500 g of soil	171 nematodes in 500 g of soil	188 nematodes in 500 g of soil
